This note sets out measurements from patent publication US8124744B2, “Macrolide derivatives” (Taisho Pharmaceutical Co., Ltd., priority 2006, dated 2012).

The IC50 is the midpoint of a concentration-inhibition curve. As usually defined, the MIC is the least concentration at which growth counts as inhibited. Read a low MIC as inhibition by little substance.

For one assay, the system named is pro MMP-9 protein. Nature of the assay: Inhibitory activity against proMMP-9 protein production (TNF α-stimulated mouse peritoneal exudate cells, ELISA). The assay is classed as cell-based, C57BL/6J mice. The following applies: relative activity when the value of Comparative Agent 1 (IC50 = 10.04 ± 4.11 μM) is 10, on the increase of pro MMP-9 by TNF α 25 ng/ml, 24 hours, read-out: IC50 (μM)*. The protocol: (§1) To 7- to 9-week male C57BL/6J mice (purchased from CLEA Japan, Inc. or Japan SLC, Inc.), Zymosan A (SIGMA) derived from budding yeasts which is adjusted to be 1 mg/ml in a phosphate buffer solution (PBS, 10010-49, Invitrogen) was administered intraperitoneally at 1 ml per mouse to induce peritonitis. Three days later, filter-sterilized cell recovery buffer (2 mM EDTA, 0.5% bovine serum albumin, PBS, pH 7.4) was administered intraperitoneally at 5 ml per mouse to recover peritoneal exudata cells. The cells went through a cell strainer (70 μm nylon, FALCON) and were then washed twice with a Hanks solution (Invitrogen). The cells were suspended in 10% fetal calf serum-containing Dulbecco's modified Eagle's culture medium (Invitrogen). The suspension was seeded on a plate with 48 wells, after 6 hours, the culture medium was completely exchanged. After culturing for another 18 hours, test compounds were added at 0.02 to 20 μM of the final concentration. After 1 hour from the addition of the compounds, a tumor necrosis factor (TNF) α (R & D Systems) was added at 25 ng/ml of the final concentration, and 24 hours later, the culture supernatant was collected. The amount of pro MMP-9 protein in the supernatant was quantified by an enzyme-linked immunosorbent assay (ELISA) (R & D Systems), IC50 values of the test compounds on the increased amount by TNF α stimuli, were calculated by ORIGIN analysis software (trade name: OriginLab). In addition, minimal inhibitory concentration (MIC) of each test compounds (measured bacterium: Staphylococcus aureus ATCC29213) was measured. As a comparative agent […] A (clarithromycin) was used.
(In general: An ELISA detects its analyte on a solid surface through an enzyme-linked reagent.)

In assay [1] the test system is Staphylococcus aureus ATCC29213. Nature of the assay: Minimal inhibitory concentration (MIC). The assay is classed as cell-based. The protocol:
as §1

Converted amounts (≈) assume the structure as drawn.

For the compound `CC[C@H]1OC(=O)[C@H](C)[C@@H](O[C@H]2C[C@@](C)(OC)[C@@H](O)[C@H](C)O2)[C@H](C)[C@@H](O[C@@H]2O[C@H](C)C[C@@H](N(C)Cc3ccc(N4CCOCC4)cc3)[C@@H]2N(C)C)[C@@](C)(OC)C[C@@H](C)C(=O)[C@H](C)[C@@H](O)[C@]1(C)O` [Example 182, 3′-N-demethyl-2′-deoxy-2′-dimethylamino-3′-N-(4-(4-morpholino)benzyl)methyl-6-O-methylerythromycin A], in the assay with pro MMP-9 protein, the IC50 was determined as 1.72 µM. Also, in assay [1], the minimal inhibitory concentration (MIC) was > 128 µg/mL.

Take `CC[C@H]1OC(=O)[C@H](C)[C@@H](O[C@H]2C[C@@](C)(OC)[C@@H](O)[C@H](C)O2)[C@H](C)[C@@H](O[C@@H]2O[C@H](C)C[C@@H](N3CCOCC3)[C@@H]2N(C)C)[C@@](C)(O)C[C@@H](C)CN(C)[C@H](C)[C@@H](O)[C@]1(C)O` [Example 213, 3′-dedimethylamino-2′-deoxy-2′-dimethylamino-3′-(4-morpholino)-9-deoxo-9a-aza-9a-methyl-9a-homoerythromycin A]: the half-maximal inhibitory concentration (IC50) in the assay with pro MMP-9 protein came out at 0.77 µM. For the same compound, in assay [1], the MIC is > 128 µg/mL.

Turning to `CC[C@H]1OC(=O)[C@H](C)[C@@H](O[C@H]2C[C@@](C)(OC)[C@@H](O)[C@H](C)O2)[C@H](C)[C@@H](O[C@@H]2O[C@H](C)C[C@H](N(C)C)[C@H]2OC)[C@@](C)(OC)C[C@@H](C)[C@H](N)[C@H](C)[C@@H](O)[C@]1(C)O` [Compound T of Example 142, 9-deoxo-9-(S)-amino-6,2′-di-O-methylerythromycin A], the 50% inhibitory concentration (IC50) with pro MMP-9 protein was found to be 8.88 µM. Also, in assay [1], the minimum inhibitory concentration (MIC) is > 128 µg/mL.

With `CC[C@H]1OC(=O)[C@H](C)[C@@H](O[C@H]2C[C@@](C)(OC)[C@@H](OC(C)=O)[C@H](C)O2)[C@H](C)[C@@H](O[C@@H]2O[C@H](C)C[C@H](N(C)C)[C@H]2OCCCN(C)C)[C@@](C)(OC)C[C@@H](C)C(=O)[C@H](C)[C@@H](O)[C@]1(C)O` [Example 116, 4″-O-acetyl-2′-O-(3-dimethylaminopropyl)-6-O-methylerythromycin A], the IC50 in the assay with pro MMP-9 protein came to 2.79 µM. The minimal inhibitory concentration (MIC) in assay [1] was > 128 µg/mL.

With `CC[C@H]1OC(=O)[C@H](C)[C@@H](O[C@H]2C[C@@](C)(OC)[C@@H](O)[C@H](C)O2)[C@H](C)[C@@H](O[C@@H]2O[C@H](C)C[C@H](N(C)CCCO)[C@H]2OC)[C@@](C)(OC)C[C@@H](C)C(=O)[C@H](C)[C@@H](O)[C@]1(C)O` [Example 132, 3′-N-demethyl-3′-N-(3-hydroxypropyl)-6,2′-di-O-methylerythromycin A], in the assay with pro MMP-9 protein, the IC50 turned out to be 2.52 µM. Moreover, the MIC in assay [1] was > 128 µg/mL.

Take `CC[C@H]1OC(=O)[C@H](C)[C@@H](O[C@H]2C[C@@](C)(OC)[C@@H](O)[C@H](C)O2)[C@H](C)[C@@H](O[C@@H]2O[C@H](C)C[C@H](N(C)C)[C@H]2OCCCc2ccccc2)[C@@](C)(OC)C[C@@H](C)C(=O)[C@H](C)[C@@H](O)[C@]1(C)O` [Example 24, 2′-O-(3-phenylpropyl)-6-O-methylerythromycin A]: in the assay on pro MMP-9 protein, the IC50 is 0.38 µM. Besides, in assay [1], the MIC was > 64 µg/mL.

In the case of `CC[C@H]1OC(=O)[C@H](C)[C@@H](O[C@H]2C[C@@](C)(OC)[C@@H](O)[C@H](C)O2)[C@H](C)[C@@H](O[C@@H]2O[C@H](C)C[C@@H](N(C)Cc3cccnc3)[C@@H]2N(C)C)[C@@](C)(OC)C[C@@H](C)C(=O)[C@H](C)[C@@H](O)[C@]1(C)O` [Example 190, 3′-N-demethyl-2′-deoxy-2′-dimethylamino-3′-N-(3-pyridylmethyl)-6-O-methylerythromycin A], the IC50 in the assay on pro MMP-9 protein came to 3.82 µM. The minimum inhibitory concentration (MIC) in assay [1] was > 128 µg/mL.

`CC[C@H]1OC(=O)[C@H](C)[C@@H](O[C@H]2C[C@@](C)(OC)[C@@H](O)[C@H](C)O2)[C@H](C)[C@@H](O[C@@H]2O[C@H](C)C[C@H](N(C)C)[C@H]2OCCCNS(C)(=O)=O)[C@@](C)(OC)C[C@@H](C)C(=O)[C@H](C)[C@@H](O)[C@]1(C)O` [Example 117, 2′-O-(3-methanesulfonylamidepropyl)-6-O-methylerythromycin A]: the IC50 with pro MMP-9 protein turned out to be 3.55 µM. Also, the MIC in assay [1] is > 128 µg/mL.

Consider `CC[C@H]1OC(=O)[C@H](C)[C@@H](O[C@H]2C[C@@](C)(OC)[C@@H](O)[C@H](C)O2)[C@H](C)[C@@H](O[C@@H]2O[C@H](C)C[C@@H](N3CCN(C)CC3)[C@@H]2N(C)C)[C@@](C)(OC)C[C@@H](C)C(=O)[C@H](C)[C@H]2NC(=O)O[C@@]21C` [Example 89, 11-amino-3′-dedimethylamino-11,2′-dideoxy-2′-dimethylamino-3′-(4-methylpiperazin-1-yl)-6-O-methylerythromycin A 11,12-cyclic carbamate], for which the IC50 with pro MMP-9 protein was 1.59 µM. For the same compound, the minimal inhibitory concentration (MIC) in assay [1] is > 128 µg/mL.

Regarding `CC[C@H]1OC(=O)[C@H](C)[C@@H](O[C@H]2C[C@@](C)(OC)[C@@H](O)[C@H](C)O2)[C@H](C)[C@@H](O[C@@H]2O[C@H](C)C[C@@H](N(C)Cc3ccccc3)[C@@H]2N(C)C)[C@@](C)(OC)C[C@@H](C)C(=O)[C@H](C)[C@@H](O)[C@]1(C)O` [Example 171, 3′-N-demethyl-2′-deoxy-2′-dimethylamino-3′-N-benzyl-6-O-methylerythromycin A], the IC50 in the assay on pro MMP-9 protein was found to be 1.45 µM. For the same compound, the MIC in assay [1] was > 128 µg/mL.

With `CC[C@H]1OC(=O)[C@H](C)[C@@H](O[C@H]2C[C@@](C)(OC)[C@@H](O)[C@H](C)O2)[C@H](C)[C@@H](O[C@@H]2O[C@H](C)C[C@@H](N(C)Cc3ccncc3)[C@@H]2N(C)C)[C@@](C)(OC)C[C@@H](C)C(=O)[C@H](C)[C@@H](O)[C@]1(C)O` [Example 188, 3′-N-demethyl-2′-deoxy-2′-dimethylamino-3′-N-(4-pyridylmethyl)-6-O-methylerythromycin A], in the assay on pro MMP-9 protein, the IC50 came to 3.24 µM. Further, in assay [1], the MIC is > 128 µg/mL.

As to `CC[C@H]1OC(=O)[C@H](C)[C@@H](O[C@H]2C[C@@](C)(OC)[C@@H](OC(C)=O)[C@H](C)O2)[C@H](C)[C@@H](O[C@@H]2O[C@H](C)C[C@@H](N3CC[C@@H](O)C3)[C@@H]2N(C)C)[C@@](C)(OC)C[C@@H](C)C(=O)[C@H](C)[C@@H](O)[C@]1(C)O` [Compound Y of Example 200, 4″-O-acetyl-3′-dedimethylamino-2′-deoxy-2′-dimethylamino-3′-((R)-3-hydroxypyrrolidin-1-yl)-6-O-methylerythromycin A], in the assay with pro MMP-9 protein, the IC50 worked out at 3.02 µM. The minimum inhibitory concentration (MIC) in assay [1] is > 128 µg/mL.

Consider `CC[C@H]1OC(=O)[C@H](C)[C@@H](O[C@H]2C[C@@H](C)[C@H](O)[C@](C)(OC)O2)[C@H](C)[C@@H](O[C@@H]2O[C@H](C)C[C@H](N(C)CCN(C)C)[C@H]2OC)[C@@](C)(OC)C[C@@H](C)C(=O)[C@H](C)[C@@H](O)[C@]1(C)O` [Example 104, 3′-N-demethyl-3′-N-(2-dimethylaminoethyl)-6,2′-di-O-methylerythromycin A], for which the 50% inhibitory concentration (IC50) in the assay with pro MMP-9 protein was determined as 5 µM. Moreover, the MIC in assay [1] was > 128 µg/mL.

With `CC[C@H]1OC(=O)[C@H](C)[C@@H](O[C@H]2C[C@@](C)(OC)[C@@H](OC(C)=O)[C@H](C)O2)[C@H](C)[C@@H](O[C@@H]2O[C@H](C)C[C@@H](NC)[C@@H]2N(C)C)[C@@](C)(OC)C[C@@H](C)C(=O)[C@H](C)[C@@H](O)[C@]1(C)O` [Example 174, 4″-O-acetyl-3′-N-demethyl-2′-deoxy-2′-dimethylamino-6-O-methylerythromycin A], the IC50 in the assay with pro MMP-9 protein worked out at 1.7 µM. Moreover, in assay [1], the MIC is > 128 µg/mL.

With `CC[C@H]1OC(=O)[C@H](C)[C@@H](O[C@H]2C[C@@](C)(OC)[C@@H](O)[C@H](C)O2)[C@H](C)[C@@H](O[C@@H]2O[C@H](C)C[C@@H](N3CCN(CCN(C)C)CC3)[C@@H]2N(C)C)[C@@](C)(OC)C[C@@H](C)C(=O)[C@H](C)[C@@H](O)[C@]1(C)O` [Example 169, 3′-dedimethylamino-2′-deoxy-2′-dimethylamino-3′-(4-(2-dimethylaminoethyl)piperazin-1-yl)-6-O-methylerythromycin A], in the assay with pro MMP-9 protein, the IC50 worked out at 2.89 µM. In addition, the minimal inhibitory concentration (MIC) in assay [1] is > 128 µg/mL.

On to `CC[C@H]1OC(=O)[C@H](C)[C@@H](O[C@H]2C[C@@](C)(OC)[C@@H](OC(C)=O)[C@H](C)O2)[C@H](C)[C@@H](O[C@@H]2O[C@H](C)C[C@@H](N3CCOCC3)[C@@H]2N(C)C)[C@@](C)(OC(C)=O)C[C@@H](C)CN(C)[C@H](C)[C@@H](OC(C)=O)[C@]1(C)O` [Example 212, 6,11,4″-O-triacetyl-3′-dedimethylamino-2′-deoxy-2′-dimethylamino-3′-(4-morpholino)-9-deoxo-9a-aza-9a-methyl-9a-homoerythromycin A], for which, in the assay with pro MMP-9 protein, the concentration for half-maximal inhibition (IC50) was found to be 1.78 µM. Moreover, in assay [1], the MIC was > 128 µg/mL.

`CC[C@H]1OC(=O)[C@H](C)[C@@H](O[C@H]2C[C@@](C)(OC)[C@@H](O)[C@H](C)O2)[C@H](C)[C@@H](O[C@@H]2O[C@H](C)C[C@@H](NC)[C@@H]2N(C)C)[C@@](C)(OC)C[C@@H](C)C(=O)[C@H](C)[C@@H](O)[C@]1(C)O` [Example 175, 3′-N-demethyl-2′-deoxy-2′-dimethylamino-6-O-methylerythromycin A]: in the assay on pro MMP-9 protein, the IC50 came to 1.65 µM. Moreover, the MIC in assay [1] was 128 µg/mL (≈ 168 µM).
